“Also recorded” adds a separate entry of the source.

Usually Kd stands for the concentration at which binding is half-saturated.

Data set [1] relates to U2OS cells. The data set is described as follows: Live cells perfusion experiment with sensor expressed in the cytosol. The class given is cell-based. The note with it: for sensor response (ratio TMR/SiR, NADPH/NADP^+): 100 μM perfused on U2OS cells. The procedure:
Semi-stable U2OS (SPR-Halo-p30-SNAP cloned in a pEBTet vector; see Bach et al. FEBS J. 2007 Feb.; 274(3):783-90 for the description of pEBTet) freshly trypsinated are diluted 5-fold with DMEM GlutaMax+10% FBS and 1 μg/mL puromycin. They are plated (2 mL) in previously sterilized and poly-L-ornithine coated (1 h incubation) glass coverslips (20×20 mm, VWR) in 12-well plate (TPP). On day 2, the expression is induced by 100 ng/mL doxycycline for ˜24 h. […] On day 4, the cells are washed 3 times with DMEM GlutaMax+10% FBS without phenol red (10 min incubation, 37° C., 5% CO2 between each step). After 30 min of incubation, the cells are ready for imaging. Glass coverslips with labelled U2OS cells were transferred to a Cytoo chamber (44×34×10 mm). Gravity fed perfusion of the chamber was performed at a flow rate of 1 mL/min. Time-course experiments of sensor imaging were performed using a Leica LAS AF 7000 wide-field microscope equipped with a 63× plan Apochromat 1.40 NA oil immersion objective lens. A xenon arc lamp was used for imaging of the U2OS cells. For each frame, the two channels (donor and FRET) were measured consecutively with an interval of 10 s between the two emission channels. The filter set Cy3/Cy5 was used for FRET ratio imaging with excitation at 530/35 and emission at 580/40 (Cy3) as well as excitation at 635/30 and emission at 700/72 (Cy5). If not indicated otherwise, the image size was […]. The reagent perfused during the experiment (H2O2, SPY) were dissolved in HBSS (Lonza). HBSS solution was continuously perfused during the other time point of the experiment.

The conditions of data set [2]: cited from earlier work.
Data set [3] deals with Wild-type human SPR (Homo sapiens, UniProt P35270). As to conditions: cited from earlier work.
Wild-type human SPR, sequence (P35270 whole entry): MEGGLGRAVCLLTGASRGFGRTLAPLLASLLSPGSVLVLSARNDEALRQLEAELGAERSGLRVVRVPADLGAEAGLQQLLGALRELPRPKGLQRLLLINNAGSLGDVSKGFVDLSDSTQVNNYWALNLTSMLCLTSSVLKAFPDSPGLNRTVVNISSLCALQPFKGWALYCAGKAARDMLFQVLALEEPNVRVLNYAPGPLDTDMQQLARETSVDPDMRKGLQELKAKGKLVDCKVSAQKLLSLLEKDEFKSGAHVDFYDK

For the compound `OO` [H2O2, hydrogen peroxide], the entries for the “sensor response (ratio TMR/SiR, NADPH/NADP^+)” value in data set [1] and in data set [1] (listed as hydrogen peroxide) were “decreased NADPH/NADP^+ ratio” and “sharp decrease of the ratio”, respectively.
With `Nc1ccc(S(=O)(=O)Nc2ccccn2)cc1` [sulfapyridine], the “sensor response (ratio TMR/SiR)” value in data set [1] (2 mM perfused on U2OS cells) is “increased ratio TMR/SiR; also recorded: fully open the sensor”. In addition, the “pKa of the sulfonamide proton” value in data set [2] was 8.4.
Take “nicotinamide adenine dinucleotide phosphate [NADPH]”: the Kd in data set [3] was 1 µM.
“nicotinamide adenine dinucleotide phosphate [NADP^+]”: the dissociation constant (Kd) in data set [3] was 10 µM.
